The numbers were not newly measured in patent US5274121A, “N-methyl-N-[4-(1-pyrrolidinyl)-2-butynyl]amide congeners as muscarinic agents” (priority 1992, dated 1993), which cites them from elsewhere.

The test system of one data set is m3 AChR. Particulars: cited from earlier work.
A further data set relates to m5 AChR. The note with it: cited from earlier work.
Another data set concerns m2 AChR. Particulars: cited from earlier work.
For the next data set, the system named is M2 AChRs. The note with it: M2 AChR; cited from earlier work.
A further data set has as its system M1 AChRs. Particulars: M1 AChR; cited from earlier work.
The next data set concerns m4 AChR. The note with it: cited from earlier work.

`CN1CCN(CC(=O)N2c3ccccc3C(=O)Nc3cccnc32)CC1` [pirenzepine]: the affinity for pirenzepine entry with m3 AChR is “intermediate affinity”; with m5 AChR it was “intermediate affinity”; with m2 AChR it was “low affinity”; in the data set with M2 AChRs, “low-affinity”; with M1 AChRs, “high-affinity”; in the data set with m4 AChR it was “high affinity”.
